From patent US20070203325A1, “Integrase-dirived HIV-inhibiting agents” (priority 2006, published 2007)

Key:
HIV-1 NL4.3-Nef+/GFP+ [1] = test: Infection of MT4 cells by virus from producer cells expressing the IN C-terminal domain, GFP-positive cell count; type: cell-based; details: viruses produced by 293T cells expressing the protein, 48 h post-infection
HIV-1 NL4.3-Nef+/GFP+ [2] = test: Infection of HeLa-β-Gal-CD4/CCR5 cells by virus from producer cells expressing the IN C-terminal domain, MAGI assay; type: cell-based; details: viruses produced by 293T cells expressing the protein, 48 h post-infection

**Q.** “IN C-terminal domain: T7-tagged HIV-1 integrase C-terminal domain 205-288 (SEQ ID NO:2) expressed in viral producer cells” was tested. Which “virus infection of MT4 cells” value (HIV-1 NL4.3-Nef+/GFP+ [1]) did it give?
**A.** significantly impaired

**Q.** And the “virus infection of HeLa-β-Gal-CD4/CCR5 cells” value (HIV-1 NL4.3-Nef+/GFP+ [2])?
**A.** significantly impaired
